Source: the CheMixHub ionic liquid set

Assay: xn = mol fraction of the nth substance listed

CC[n+]1ccn(C)c1.O=S(=O)([O-])C(F)(F)F + O=[N+]([O-])[O-].[Li+]
101 kPa, x1 = 1
Settings	electrical conductivity [S/m]
288.15 K	0.605
298.15 K	0.859
333.15 K	2.24

CCCCCCCC[N+](C)(C)C.[Br-] + O
298.15 K, 101 kPa
Settings	viscosity [mPa·s]
x1 = 0.000891	0.9226
x1 = 0.001742	0.956
x1 = 0.002174	0.9692
x1 = 0.002616	0.9795
x1 = 0.003154	0.9978
x1 = 0.003538	1.012
x1 = 0.004276	1.036
x1 = 0.004645	1.048
x1 = 0.005039	1.058
x1 = 0.005479	1.076

O=C([O-])C(F)(F)F.O=S(=O)(O)n1cc[n+](S(=O)(=O)O)c1 + CO
electrical conductivity [S/m], 101 kPa
Settings	288.15 K	298.15 K	308.15 K	313.15 K	333.15 K
x1 = 0.0052	–	1.85	–	–	–
x1 = 0.02551	4.64	–	3.89	3.76	3.25

CC[n+]1ccn(C)c1.O=S(=O)([O-])C(F)(F)F + O + CC(=O)[O-].CC[n+]1ccn(C)c1
293.15 K, 100 kPa
Settings	viscosity [mPa·s]
x2 = 0.337, x3 = 0.64	91
x2 = 0.341, x3 = 0.612	87
x2 = 0.348, x3 = 0.555	80
x2 = 0.359, x3 = 0.492	72

CC1(C)CC(O)CC(C)(C)N1[O] + CC[N+](CC)(CC)CC.[Cl-] + O
323.15 K, 100 kPa, frequency 0.001 MHz
Settings	electrical conductivity [S/m]
x1 = 0.091, x2 = 0.182	1.2
x1 = 0.167, x2 = 0.167	0.61
x1 = 0.2, x2 = 0	0.019
x1 = 0.286, x2 = 0.143	0.16

Cc1n(S(=O)(=O)O)cc[n+]1S(=O)(=O)O.O=C([O-])C(F)(F)F + CC#N
101 kPa
Settings	electrical conductivity [S/m]
278.15 K, x1 = 0.02551	1.39
283.15 K, x1 = 0.02551	1.36
288.15 K, x1 = 0.02551	1.3
293.15 K, x1 = 0.02551	1.29
298.15 K, x1 = 0.0052	0.351
298.15 K, x1 = 0.0104	0.528
298.15 K, x1 = 0.0155	0.698
298.15 K, x1 = 0.0205	1.04
298.15 K, x1 = 0.0255	1.26
298.15 K, x1 = 0.02551	1.26
303.15 K, x1 = 0.02551	1.2
308.15 K, x1 = 0.02551	1.15
313.15 K, x1 = 0.02551	1.1
318.15 K, x1 = 0.02551	1.09
323.15 K, x1 = 0.02551	1.08
328.15 K, x1 = 0.02551	0.706
333.15 K, x1 = 0.02551	0.616

CC[n+]1ccn(C)c1.O=S(=O)([O-])C(F)(F)F + O=S(=O)([O-])C(F)(F)F.[Li+]
101 kPa, x1 = 1
Settings	electrical conductivity [S/m]
288.15 K	0.605
298.15 K	0.859
333.15 K	2.24

CNC=O + CC[n+]1ccn(C)c1.F[B-](F)(F)F
298 K, 101 kPa
Settings	electrical conductivity [S/m]
x1 = 0.21	2.08
x1 = 0.47	2.73
x1 = 0.66	2.95

OCC(O)CO + CCCCCCCCCCCC[P+](CC)(CC)CC.N#Cc1ccc[n-]1
100 kPa, x2 = 0
Settings	viscosity [mPa·s]
293.15 K	1360
298.15 K	860
303.15 K	542
313.15 K	217

COCCOCCn1cc[n+](CCC#N)c1.O=S(=O)([N-]S(=O)(=O)C(F)(F)F)C(F)(F)F + CS(C)=O
101.3 kPa
Settings	electrical conductivity [S/m]	viscosity [mPa·s]
293.15 K, x1 = 0.1981	0.00634	8.12
293.15 K, x1 = 0.2776	0.00928	–
303.15 K, x1 = 0.0989	0.00234	–
303.15 K, x1 = 0.1981	0.00768	–
303.15 K, x1 = 0.2776	0.0112	9.24
303.15 K, x1 = 0.5029	0.0405	26.2
303.15 K, x1 = 0.89	0.0942	83.1
313.15 K, x1 = 0.0989	0.00278	–
313.15 K, x1 = 0.1981	0.00939	–
313.15 K, x1 = 0.798	0.148	33.2
313.15 K, x1 = 0.89	0.125	51.5
323.15 K, x1 = 0.0989	0.00342	–
323.15 K, x1 = 0.1981	0.0122	3.212
323.15 K, x1 = 0.798	0.203	24.66

CCCCCC[n+]1ccn(C)c1.N[C@@H](CCC(=O)O)C(=O)[O-] + O
298.15 K, 100 kPa
Settings	electrical conductivity [S/m]
x1 = 0.001278	0.2317
x1 = 0.002014	0.338
x1 = 0.00309	0.46
x1 = 0.004145	0.577
x1 = 0.004824	0.676
x1 = 0.00584	0.783
x1 = 0.007281	0.923
x1 = 0.008947	1.011
x1 = 0.01064	1.107
x1 = 0.01274	1.2
x1 = 0.01517	1.26
x1 = 0.01798	1.28

CCCCC[N+](CCCCC)(CCCCC)CCCCC.[Br-] + CCCCCCCCCCCC[N+](C)(C)C.[Br-] + O
viscosity [mPa·s], 100 kPa
Settings	x2 = 5.425e-05, x1 = 0.0001802	x2 = 0.0001085, x1 = 0.0001801	x2 = 0.0001627, x1 = 0.0001801	x2 = 0.000217, x1 = 0.0001801	x2 = 0.0002712, x1 = 0.0001801	x2 = 0.0003254, x1 = 0.0001801	x2 = 0.0003796, x1 = 0.0001801	x2 = 0.0004339, x1 = 0.0001801	x2 = 0.0004881, x1 = 0.0001801	x2 = 0.0005422, x1 = 0.0001801
293.15 K	1.057	1.059	1.06	1.061	1.062	1.062	1.063	1.063	1.063	1.064
298.15 K	0.943	0.944	0.945	0.946	0.948	0.949	0.95	0.951	0.951	0.953
303.15 K	0.825	0.826	0.826	0.827	0.827	0.827	0.828	0.828	0.828	0.829
308.15 K	0.745	0.746	0.746	0.746	0.747	0.747	0.747	0.748	0.748	0.749
313.15 K	0.679	0.68	0.681	0.681	0.682	0.682	0.682	0.682	0.683	0.683
318.15 K	0.624	0.625	0.625	0.625	0.626	0.626	0.626	0.626	0.626	0.627

CC[n+]1ccn(C)c1.O=S(=O)([O-])C(F)(F)F + O
101 kPa
Settings	electrical conductivity [S/m]	viscosity [mPa·s]
293.15 K, x1 = 0.004	–	1.07
293.15 K, x1 = 0.029	–	1.67
293.15 K, x1 = 0.041	–	2.01
293.15 K, x1 = 0.463	–	13.6
297.45 K, x2 = 0.304	1.17	–
298.15 K, x1 = 0.005	1.4	0.99
298.15 K, x1 = 0.012	2.3	1.11
298.15 K, x1 = 0.017	–	1.23
298.15 K, x1 = 0.041	–	1.78
298.15 K, x1 = 0.064	4.4	2.17
298.15 K, x1 = 0.137	4.6	3.71
303.15 K, x1 = 0.008	–	0.92
303.15 K, x1 = 0.017	–	1.09
303.15 K, x1 = 0.137	–	3.27
303.15 K, x1 = 0.391	–	8.23
303.65 K, x2 = 0.304	1.46	–
305.35 K, x2 = 0.304	1.58	–
313.15 K, x1 = 0.004	–	0.7
313.15 K, x1 = 0.017	3.9	0.89
313.15 K, x1 = 0.029	5.1	1.05
313.15 K, x1 = 0.137	6.3	2.58
